Experimental data: patent EP0286252A2, “Anti-cancer composition & method featuring cyanine dyes” (DANA FARBER CANCER INSTITUTE, priority 1987, dated 1988)

Legend:
stomach cancer = settings: treating stomach cancer in Japan; Antibiotics Chemother., Vol. 24 (1978); cited from earlier work
[1] = tested on: human melanoma cell line, LOX; assay: LOX melanoma survival test, nude mice protocol; type: in vivo, athymic Swiss nu/nu mice; settings: for T/C: survival of treated vs untreated control group, 5 million LOX cells IP, IP treatment from day 1, lower dosage schedule for Dye 5
Description: (§1) Figs. 1-8 are a plot of survival rates of a cancer in an animal model, either treated as per the invention or untreated. In these plots, "% survival" means the % of the total group (treated "T" or control "C") still surviving on the day in question. The 50% data point is selected for the T/C calculation, as being the point that is statistically meaningful.
(§2) In the examples that follow, "nude mice protocol" refers to conventional xenografted human carcinoma or melanoma cells implanted into athymic mice. […] This has been reported in, e.g., the Journal of the National Cancer Institute, Vol. 74, No. 4, p. 899-903, especially p. […] (April 1985).
A human melanoma cell line, LOX, was utilized that grows rapidly when innoculated into the peritoneal cavity of athymic mice. Tumors which had been passaged subcutaneously in athymic mice were excised under sterile conditions and converted to a single cell suspension using a metal grid with a 4 mm mesh. Red blood cells were then lysed by incubation with 0.17 molar ammonium chloride at 4°C for 20 minutes. Cells were then scored for viability with trypan blue and 5 million viable cells made up in 0.1 ml of Dulbecco modified Eagles' medium (DME) were injected intraperitoneally into a group of athymic Swiss nu/nu mice (day 0). The mice were then randomly allocated into treatment and control groups. Treatment, by intraperitoneal injection, commenced the following day (day 1). Mice received dye No. 1 or Dye No. 2 at 1 mg/kg daily for five days followed by 1.5 mg/kg on day 8, 10, 12, 14 and 16, and twice a week at 2 mg/kg thereafter. There were 10 mice in each of the treatment groups and control group. The control group received 5% dextrose solution equal in volume to that of the Dye No. 1 treated group.
In the same experiment, the comparative example 1 was administered to 10 mice using the following schedule: 0.2 mg/kg daily for five days followed by 0.5 mg/kg on day 8, 10, 12, 14 and 16, and twice a week at 1 mg/kg thereafter.
T/C is the ratio, expressed as a percentage, of mean survival age of the treated group, to the mean survival age of the untreated control group.

MB49 tumor cells = assay: mouse bladder carcinoma survival test, dyes given intraperitoneally; type: in vivo, normal male BDF1 mice
Protocol: as §1
MB49 tumor cells, that is, mouse carcinoma cells induced by the carcinogen 7,12-dimethylbenz[a]anthracene, were injected intraperitoneally into normal male BDF1 mice (2 X 10⁶/mouse on day 0). Cyanine Dye No. 1 or No. 2, was administered intraperitioneally in the following manner: 0.2 mg/kg on day 1, 0.4 mg/kg on day 2, 0.8 mg/kg on day 3, 1.2 mg/kg on day 4, 1.5 mg/kg on days 8, 12, 16, 20, 24. (No further injection was used thereafter). […] (No further injection was used thereafter.) The control group of 10 mice was treated with equal volume of 5% dextrose as those treated with dye no. 1. The survival rate was calculated as in the previous examples.

[2] = tested on: CX-1 (human colon carcinoma); assay: clonogenic in vitro study, inhibition of cell colony formation; type: cell-based; settings: concentration of dye that inhibits 50% of cell colony formation, regular lighting conditions of laboratories; for IC50: Homo sapiens
Description: As noted above, one of the advantages of the invention is that the cyanines described herein selectively attack the cancer cells as opposed to normal cells. Although knowledge of the mechanism is not essential to the practice of the invention, it is believed this occurs through the preferential inhibition of oxygen consumption in the mitochondria of the cancer cells. Such selectivity is further shown in clonogenic in vitro studies carried out in conventional fashion. That is, cell cultures of CX-1 (human colon carcinoma) and CV-1 (normal monkey epithelial cells) are prepared and treated at various concentrations, in the conventional manner, and the concentration of the dye that inhibits 50% of the cell colony formation is denoted as IC₅₀. This IC₅₀ value is compared for both the CX-1 and CV-1 lines; that is, the value for CV-1 is divided by the value for CX-1. If the value is 10 µg/ml for CV-1, and 1 µg/ml for CX-1, then the dye is 10 times as effective in killing off the colon carcinoma cells, compared to the monkey epithelial cells. This is expressed as a selectivity "S" of 10.
The selectivity values, and the CX-1 values for four of the cyanines of this invention obtained and tested under regular lighting conditions of laboratories, are listed below in Table I, along with a fifth cyanine used for comparative purposes.

[3] = tested on: CX-1 (human colon carcinoma) and CV-1 (normal monkey epithelial cells); assay: clonogenic in vitro selectivity, IC50 for CV-1 divided by IC50 for CX-1; type: cell-based; settings: selectivity: IC50 value for CV-1 divided by value for CX-1
Protocol: That is, cell cultures of CX-1 (human colon carcinoma) and CV-1 (normal monkey epithelial cells) are prepared and treated at various concentrations, in the conventional manner, and the concentration of the dye that inhibits 50% of the cell colony formation is denoted as IC₅₀. This IC₅₀ value is compared for both the CX-1 and CV-1 lines; that is, the value for CV-1 is divided by the value for CX-1. […] This is expressed as a selectivity "S" of 10.
Their generic structure is as follows: [drawing 7]

[4] = tested on: OVCAR -3, a human ovarian carcinoma cell line; assay: ovarian carcinoma survival test, nude mice protocol; type: in vivo, athymic Swiss nu/nu mice; settings: survival of treated vs control; ten million OVCAR-3 cells IP; IP treatment; lower dosage schedule for Dye 5
Description: as §1, §2
Dye Nos. 1 and 2 were repeated, except the cancer that was treated was OVCAR -3, a human ovarian carcinoma cell line of which ten million cells were injected IP into athymic Swiss nu/nu mice. For Ex. 5, 10 mice received dye 1 by IP injection commenced the day after the cancer injection, and repeated daily at 1.5 mg/kg for four days followed by 2 mg/kg on day 7, 10, 13, 16, 19 and 21, and twice a week at 2 mg/kg thereafter. Ten mice having such injected cancer were selected as a control group and received an equal volume of 5% dextrose as that of the treated group.
For Ex. 6, 10 mice received dye no. […]

SMILES | T/C [1] | IC50 [2] | S [3] | other results
COc1cccc2c1C(=O)c1c(O)c3c(c(O)c1C2=O)C[C@@](O)(C(=O)CO)C[C@@H]3O[C@H]1C[C@H](N)[C@H](O)[C@H](C)O1 [Adriamycin] | – | – | – | effective response rate (stomach cancer): 14.5%
CN1C(=CC=Cc2sc3ccccc3[n+]2C)Sc2ccccc21 [Dye No. 1, 3-methyl-2-[3-(3-methyl-4-benzo-thiazolin-2-ylidene)-1-propen-1-yl]-benzo-thiazolium chloride] | 205% | – | – | –
CCN1C(=CC=Cc2sc3ccccc3[n+]2CC)Sc2ccccc21 [Dye No. 2, 3-ethyl-2-[3-(3-ethyl-4-benzothia-zolin-2-ylidene)-1-propen-1-yl]-benzothiazolium iodide] | 176% | – | – | –
CCCN1C(=CC=Cc2sc3ccccc3[n+]2CCC)Sc2ccccc21 [Dye No. 5, 3-propyl-2-[3-(3-propyl-4-benzothia-zolin-2-ylidene)-1-propen-1-yl]benzothiazolium iodide] | – | – | – | outcome of treatment (verdict in words) (MB49 tumor cells; MB49 mouse bladder carcinoma, IP): failure; toxicity at the dosage of Dye No. 1 ([1]; LOX-bearing athymic mice, IP, dosage schedule of Dye No. 1 (1 mg/kg daily for five days, then 1.5 and 2 mg/kg)): killed the mice before the 50% survival point of the control could be reached; T/C ([1]; listed as 3): 168%; CX-1 Value ([2]; listed as 3): .004 µg/mL
CN1C(=CC=Cc2sc3ccccc3[n+]2C)Sc2ccccc21 [compound 1] | – | 5 ng/mL | – | –
CCN1C(=CC=Cc2sc3ccccc3[n+]2CC)Sc2ccccc21 [compound 2] | – | 5 ng/mL | – | –
CCN1C(=CC=c2sc(=Cc3sc4c([n+]3CC)CCCC4)n(CC)c2=O)Oc2ccccc21 [compound 4] | 166% | 50 ng/mL | 100 | –
CCCN1C(=CC=Cc2sc3ccccc3[n+]2CCC)Sc2ccccc21 [compound 5] | 128% | – | 22 | T/C (MB49 tumor cells; survival of treated vs control, 2 X 10^6 MB49 cells/mouse IP, IP treatment, lower dosage schedule for dye No. 5): 113%; T/C [4]: 138%; CX-1 Value [2]: .009 µg/mL
CCN1C(=CC(=Cc2sc3ccccc3[n+]2C)SC)Sc2ccccc21 [compound 6] | – | – | 37.5 | –
CCC(=Cc1oc2ccccc2[n+]1CC)C=C1Sc2ccccc2N1CC [compound 7] | – | – | 33.3 | –
